Values of other authors in US9790217B2, “Pyridinyloxy- and phenyloxy-pyrazolyl compounds” (Hoffmann-La Roche Inc., priority 2014, dated 2017).

Key:
[1] = test system: rat model of chronic kidney disease; conditions: rat CKD model, cited from earlier work; for plasma aldosterone: FAD286 4 weeks, spironolactone 4 and 8 weeks of treatment
[2] = test system: rats with experimental heart failure; conditions: cited from earlier work
[3] = test system: patients with primary aldosteronism; conditions: cited from earlier work

Compound	plasma aldosterone [1]	angiotensin II and salt-stimulated PAI-1 mRNA expression in the aorta and the heart [1]	cardiac and aortic medial hypertrophy [1]	renal effects of angiotensin II and high salt (albuminuria, azotemia, renovascular hypertrophy, glomerular injury, PAI-1, osteopontin mRNA, tubulointerstitial fibrosis) [1]	blood pressure and cardiovascular function and structure [2]	kidney function and morphology [2]	blood pressure [3]	hypokalemia [3]	circulating aldosterone levels ([3]; oral)
CC(=O)S[C@@H]1CC2=CC(=O)CC[C@]2(C)[C@H]2CC[C@@]3(C)[C@@H](CC[C@@]34CCC(=O)O4)[C@H]12 [spironolactone]	increased	enhanced	attenuated	prevented	–	–	–	–	–
N#Cc1ccc(C2CCCc3cncn32)cc1 (stereo not drawn) [FAD286]	reduced	–	attenuated	prevented	improved	improve	–	–	–
N#Cc1ccc([C@H]2CCc3cncn32)c(F)c1 [LCI699]	–	–	–	–	–	–	mildly decreased	corrected	significantly lower
